# Reference: article PMC2246472, “Bombesin and bombesin antagonists: studies in Swiss 3T3 cells and human small cell lung cancer” (British Journal of Cancer, 1988)
# Where two headings read alike, the source gives them in different places.
# Assays:
# bombesin/GRP receptor = biological target: T1, bombesin/GRP receptor (Mus musculus, UniProt P21729); conditions: Swiss 3T3 cells; ref Zachary & Rozengurt, 1985a; cited from earlier work
# T1 construct: endogenous in cells; host or cells: Swiss 3T3 murine fibroblasts (intact, quiescent/confluent)
# Description: Br. J. Cancer (1988), 57, 579-586 ? The Macmillan Press Ltd., 1988 Bombesin and bombesin antagonists: Studies in Swiss 3T3 cells and human small cell lung cancer* P.J. Woll & E. Rozengurt Imperial Cancer Research Fund, PO Box 123, Lincoln's Inn Fields, London WC2A 3PX, UK.
# Swiss 3T3 cells [1] = test system: Swiss 3T3 cells; set-up: method as in 2 sources, one per row (each row's own in cited_ref): ref Rozengurt & Sinnett-Smith, 1983 ||| ref Zachary & Rozengurt, 1985a; conditions: serum-free medium, cited from earlier work
# H69 SCLC cell line = experiment: Growth of H69 SCLC cell line in serum-free HITES medium (Coulter counter); type: cell-based, human; conditions: peptide A at 150 pM (so in the source), HITES medium + 0.25% bovine serum albumin, inoculum 5 x 10^4 cells, mean of 3; restored by washing; Figure 3 left
# Ca2+ mobilization = conditions: Swiss 3T3 cells; ref Mendoza et al., 1986; cited from earlier work
# Description: (§1) Br. J. Cancer (1988), 57, 579-586 ? The Macmillan Press Ltd., 1988 Bombesin and bombesin antagonists: Studies in Swiss 3T3 cells and human small cell lung cancer* P.J. Woll & E. Rozengurt Imperial Cancer Research Fund, PO Box 123, Lincoln's Inn Fields, London WC2A 3PX, UK. Summary Bombesins are potent growth factors for murine Swiss 3T3 cells. Using these cells in chemically defined conditions we have been able to characterise the bombesin receptor and the early signals preceding DNA synthesis. We describe two substance P analogues [DArg1, DPro2, DTrp7 9, Leu1 ] substance P and [DArg1, DPhe5, ...
# EGF receptor = conditions: Swiss 3T3 cells; ref Zachary et al., 1986; cited from earlier work
# Description: as §1
# [2] = test system: GRP-stimulated mitogenesis in Swiss 3T3 cells; conditions: ref Zachary & Rozengurt, 1985a; cited from earlier work
# Description: as §1
# [3] = biological target: T2, Mr 75,000-85,000 protein component of the bombesin/GRP receptor (Mus musculus, UniProt P21729); conditions: Swiss 3T3 cells; ref Zachary & Rozengurt, 1987a; cited from earlier work
# T2 construct: endogenous in cells; host or cells: Swiss 3T3 murine fibroblasts (intact, quiescent/confluent)
# Description: as §1
# Na+/K+ pump = conditions: Swiss 3T3 cells; ref Mendoza et al., 1986; cited from earlier work
# Description: as §1
# Swiss 3T3 cells [4] = conditions: ref Zachary & Rozengurt, 1985a; cited from earlier work
# Description: as §1
# [5] = test system: c-fos and c-myc expression; conditions: Swiss 3T3 cells; ref Rozengurt & Sinnett-Smith, 1987; cited from earlier work
# Description: as §1
# [6] = test system: protein kinase C (80K phosphorylation); conditions: Swiss 3T3 cells; ref Zachary et al., 1986; cited from earlier work
# Description: as §1
# [7] = test system: vasopressin-stimulated DNA synthesis in Swiss 3T3 cells; conditions: ref Zachary & Rozengurt, 1986, Corps et al., 1985; cited from earlier work
# Description: as §1
# pancreatic acinar cells = conditions: ref Jensen et al., 1984; cited from earlier work
# T1 sequence (P21729 whole entry): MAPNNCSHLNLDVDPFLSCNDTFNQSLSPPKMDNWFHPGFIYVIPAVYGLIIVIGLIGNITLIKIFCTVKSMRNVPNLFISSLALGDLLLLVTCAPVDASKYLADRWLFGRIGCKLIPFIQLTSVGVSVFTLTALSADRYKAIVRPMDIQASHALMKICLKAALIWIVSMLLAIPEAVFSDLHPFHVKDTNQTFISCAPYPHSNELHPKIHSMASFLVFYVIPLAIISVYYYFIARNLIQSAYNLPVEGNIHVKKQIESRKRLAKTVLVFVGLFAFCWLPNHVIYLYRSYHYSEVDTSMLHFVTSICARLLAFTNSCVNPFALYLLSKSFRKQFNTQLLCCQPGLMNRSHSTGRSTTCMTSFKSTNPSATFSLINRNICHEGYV
# T2 sequence (P21729 whole entry): as above
molecule,measurement,setting,value
"Arg Pro Lys Pro Gln Gln Phe Phe Gly Leu Met NH2 [substance P, tachykinin with minimal structural homology with bombesin, reference compound]",inhibition of [125I]GRP binding by other mitogens and neuropeptides,bombesin/GRP receptor,not inhibited
"pGlu Gin Arg Leu Gly Asn Gin Trp Ala Val Gly His Leu Met NH2 [bombesin, tetradecapeptide first isolated from amphibian skin]",EC50,"Swiss 3T3 cells [1]; absence of other growth-promoting agents, ref Rozengurt & Sinnett-Smith, 1983, read-out: bombesin concentration giving half-maximal effect on DNA synthesis",1000 pM
same,EC50,"Swiss 3T3 cells [1]; in the presence of insulin, ref Zachary & Rozengurt, 1985a, read-out: bombesin concentration required to produce a half-maximal response (DNA synthesis) with insulin",300 pM
insulin,inhibition of [125I]GRP binding by other mitogens and neuropeptides,bombesin/GRP receptor,not inhibited
"vasoactive intestinal peptide [VIP, reference compound]",inhibition of [125I]GRP binding by other mitogens and neuropeptides,bombesin/GRP receptor,not inhibited
EGF: epidermal growth factor,inhibition of [125I]GRP binding by other mitogens and neuropeptides,bombesin/GRP receptor,not inhibited
PDGF,inhibition of [125I]GRP binding by other mitogens and neuropeptides,bombesin/GRP receptor,not inhibited
"DArg Dpro Lys Pro Gln Gln DTrp Phe DTrp Leu Leu NH2 [peptide A, [DArg1, DPro2, DTrp7,9, Leu11] substance P]",effect on growth of H69 cells,H69 SCLC cell line,suppressed
same,effect on [125I]GRP binding (Table III),bombesin/GRP receptor,reversibly blocks
same,effect on Ca2+ mobilization (Table III),Ca2+ mobilization,reversibly blocks
same,effect on EGF transmodulation (Table III),EGF receptor,reversibly blocks
same,effect on stimulation of DNA synthesis by bombesin-like peptides (Table III),[2],reversibly blocks
same,"effect on cross-linking of [125I]GRP to the Mr 75,000-85,000 glycoprotein (Table III)",[3],reversibly blocks
same,effect on activation of Na+/K+ pump (Table III),Na+/K+ pump,reversibly blocks
same,"effect on DNA synthesis stimulated by PDGF, EGF, phorbol esters and c-AMP-increasing agents (Table III)",Swiss 3T3 cells [4],is not affected
same,effect on increase in c-fos and c-myc expression (Table III),[5],reversibly blocks
same,effect on 80K phosphorylation (Table III),[6],reversibly blocks
same,effect on stimulation of DNA synthesis by vasopressin (Table III),[7],reversibly blocks
same,effect on secretory effects of bombesin in pancreatic acinar cells,pancreatic acinar cells,block the secretory effects of bombesin
"CCCC(=O)O[C@@H]1[C@@H](C)[C@@]2(O)[C@@H](C=C(CO)C[C@]3(O)C(=O)C(C)=C[C@@H]23)[C@@H]2C(C)(C)[C@]12OC(=O)CCC [PBt2, phorbol 12,13, dibutyrate, reference compound]",inhibition of [125I]GRP binding by other mitogens and neuropeptides,bombesin/GRP receptor,not inhibited
vasopressin [reference compound],inhibition of [125I]GRP binding by other mitogens and neuropeptides,bombesin/GRP receptor,not inhibited
